From BindingDB's records for patent US12264155 (Repare Therapeutics, 2025)

Target: Serine/threonine-protein kinase ATR (Homo sapiens, UniProt Q13535)
Assay: ATR/ATRIP Enzymatic Assay
From the text: Detection of ATR kinase activity utilized the AlphaScreen system to measure the phosphorylation of the substrate protein p53.

Chain of Serine/threonine-protein kinase ATR (Q13535 whole entry): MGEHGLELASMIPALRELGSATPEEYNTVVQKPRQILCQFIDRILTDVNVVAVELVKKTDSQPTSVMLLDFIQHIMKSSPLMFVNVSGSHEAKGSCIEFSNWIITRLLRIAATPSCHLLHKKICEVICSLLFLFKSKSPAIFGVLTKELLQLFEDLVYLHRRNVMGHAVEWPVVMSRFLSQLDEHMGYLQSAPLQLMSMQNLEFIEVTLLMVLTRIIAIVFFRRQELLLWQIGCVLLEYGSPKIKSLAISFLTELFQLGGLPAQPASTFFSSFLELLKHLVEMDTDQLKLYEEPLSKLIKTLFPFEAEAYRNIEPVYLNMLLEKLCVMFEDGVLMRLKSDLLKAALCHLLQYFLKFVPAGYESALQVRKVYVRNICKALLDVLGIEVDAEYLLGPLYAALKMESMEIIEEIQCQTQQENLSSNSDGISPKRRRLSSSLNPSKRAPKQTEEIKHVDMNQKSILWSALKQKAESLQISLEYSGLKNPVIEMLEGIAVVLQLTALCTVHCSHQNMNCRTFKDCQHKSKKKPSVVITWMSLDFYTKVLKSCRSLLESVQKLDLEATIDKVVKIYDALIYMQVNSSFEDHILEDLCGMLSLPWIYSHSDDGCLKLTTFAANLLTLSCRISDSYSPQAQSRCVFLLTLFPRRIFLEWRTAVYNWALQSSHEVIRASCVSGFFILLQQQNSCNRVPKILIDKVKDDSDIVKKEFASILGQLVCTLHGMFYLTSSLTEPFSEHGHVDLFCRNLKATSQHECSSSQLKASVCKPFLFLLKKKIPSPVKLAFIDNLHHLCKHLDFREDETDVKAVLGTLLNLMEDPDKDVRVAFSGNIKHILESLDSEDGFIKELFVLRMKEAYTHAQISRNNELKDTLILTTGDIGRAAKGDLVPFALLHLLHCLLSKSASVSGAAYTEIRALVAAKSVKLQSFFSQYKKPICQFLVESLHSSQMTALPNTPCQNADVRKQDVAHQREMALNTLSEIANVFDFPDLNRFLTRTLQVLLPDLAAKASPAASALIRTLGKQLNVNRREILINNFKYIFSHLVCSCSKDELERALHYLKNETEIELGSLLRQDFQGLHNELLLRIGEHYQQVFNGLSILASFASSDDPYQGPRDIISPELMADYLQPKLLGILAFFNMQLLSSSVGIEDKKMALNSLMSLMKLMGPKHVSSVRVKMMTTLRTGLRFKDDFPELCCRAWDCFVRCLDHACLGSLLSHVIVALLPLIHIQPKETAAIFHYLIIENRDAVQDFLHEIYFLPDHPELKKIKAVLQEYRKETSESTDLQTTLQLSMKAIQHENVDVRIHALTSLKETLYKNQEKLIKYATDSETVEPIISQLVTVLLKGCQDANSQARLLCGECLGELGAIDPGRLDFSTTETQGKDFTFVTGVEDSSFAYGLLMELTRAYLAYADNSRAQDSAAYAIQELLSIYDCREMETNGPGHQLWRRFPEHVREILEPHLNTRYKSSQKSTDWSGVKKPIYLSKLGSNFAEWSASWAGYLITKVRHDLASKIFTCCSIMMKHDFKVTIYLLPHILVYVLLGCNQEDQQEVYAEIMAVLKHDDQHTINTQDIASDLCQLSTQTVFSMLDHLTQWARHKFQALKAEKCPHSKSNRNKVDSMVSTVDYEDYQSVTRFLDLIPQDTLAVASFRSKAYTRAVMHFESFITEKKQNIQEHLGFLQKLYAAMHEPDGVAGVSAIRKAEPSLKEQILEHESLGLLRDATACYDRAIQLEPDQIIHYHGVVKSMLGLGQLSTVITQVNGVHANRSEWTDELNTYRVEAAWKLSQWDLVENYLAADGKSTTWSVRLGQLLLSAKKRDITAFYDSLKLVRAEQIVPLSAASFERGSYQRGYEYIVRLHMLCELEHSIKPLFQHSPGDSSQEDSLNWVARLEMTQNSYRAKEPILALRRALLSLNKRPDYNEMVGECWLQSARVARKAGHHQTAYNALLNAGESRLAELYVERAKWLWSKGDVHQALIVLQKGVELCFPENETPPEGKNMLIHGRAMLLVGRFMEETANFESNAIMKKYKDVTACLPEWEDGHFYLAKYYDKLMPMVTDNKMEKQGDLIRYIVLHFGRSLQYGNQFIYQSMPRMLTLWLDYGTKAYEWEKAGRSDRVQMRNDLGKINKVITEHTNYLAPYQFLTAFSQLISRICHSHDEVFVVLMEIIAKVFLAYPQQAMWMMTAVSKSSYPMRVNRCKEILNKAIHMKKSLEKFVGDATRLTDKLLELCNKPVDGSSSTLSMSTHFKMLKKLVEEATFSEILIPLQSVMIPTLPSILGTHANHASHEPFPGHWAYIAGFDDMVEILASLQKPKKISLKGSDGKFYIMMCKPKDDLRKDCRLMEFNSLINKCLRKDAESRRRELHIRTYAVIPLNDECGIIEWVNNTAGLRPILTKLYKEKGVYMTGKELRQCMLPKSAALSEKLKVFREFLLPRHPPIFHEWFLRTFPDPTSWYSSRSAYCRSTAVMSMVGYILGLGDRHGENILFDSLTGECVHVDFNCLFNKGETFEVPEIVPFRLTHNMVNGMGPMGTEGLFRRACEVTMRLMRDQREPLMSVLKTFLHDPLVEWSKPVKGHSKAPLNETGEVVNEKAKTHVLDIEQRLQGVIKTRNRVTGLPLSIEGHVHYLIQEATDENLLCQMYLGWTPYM

IC50 [nM] | Compound
860 | C[C@@H]1COCCN1c1cc(N2CCOC2=O)c2ccn(-c3cc[nH]n3)c2n1 [US12264155, Compound 26]
13 | C[C@@H]1COCCN1c1cc(OCC(F)(F)F)c2cnn(-c3cc[nH]n3)c2n1 [US12264155, Compound 55]
6 | C[C@@H]1COCCN1c1cc(C2(O)CCC3(CCC3)CC2)c2cnn(-c3cc[nH]n3)c2n1 [US12264155, Compound 58]
< 5 | C[C@@H]1COCCN1c1cc(C(C)(C)C#N)c2c(Br)nn(-c3cc[nH]n3)c2n1 [US12264155, Compound 70]
